Source: patent US10577406B2, “FKBP-L polypeptides and uses in angiogenesis-mediated disorders” (ALMAC DISCOVERY LIMITED, priority 2006, dated 2020)

Columns and labels:
DU145 tumours = assay: prostate cancer xenograft model, daily IP injection; format: in vivo, SCID mice
Procedure: Du145 (prostate carcinoma) cells were obtained from Cancer Research UK and cultured in RPMI 1640 medium (Invitrogen) supplemented with 10% foetal calf serum. All cell lines were grown as monolayers, incubated at 37° C. under 5% CO2.
24 male immunocompromised (severe combined immunodeficient) mice were used (Harlan). The mice were acclimatised and caged in groups of 5 or less in an isolator. Du145 (prostate carcinoma) cells were cultured as previously described. Sub-confluent cells were harvested and the cell concentration was adjusted to 5×10^7 cells/ml in PBS. The dorsum of each mouse was shaved. After administrating aesthetic, each mouse received intra-dermal injections of 5×10^6 Du145 tumour cells (100 μl) bilaterally into the rear dorsum with a 26-gauge needle. The tumours were allowed to grow until they reached a volume of 150-175 mm^3. The mice were randomly divided into four treatment groups: (a) Control: PBS only (8 mice); (b) 24mer FKBPL peptide: 0.3 mg/kg/day (6 mice); (c) 24mer FKBPL peptide: 3×10^−3 mg/kg/day (6 mice); and (d) 24mer FKBPL peptide: 3×10^−4 mg/kg/day (5 mice).
The mice received daily IP injections (100 μl) of the above treatments. The weight and the tumour volume of each mouse were recorded every 2 days. Tumour volume was calculated as: Length×Breadth×Height×0.5236. Twenty-one days after initial treatment the following animals were sacrificed: 0.3 mg/kg/day 24mer FKBPL (2 mice), 3×10^−3 mg/kg/day (2 mice), 3×10^−4 mg/kg/day (1 mouse) and PBS (2 mice). The tumours were excised and stored in saline formalin solution for future histopathological analysis.

[1] = tested on: MCF-7 (breast tumor cell line; CD44 −ve); assay: tumor cell migration, wound closure assay, MCF-7; format: cell-based; conditions: MCF-7 (CD44 −ve); 24 h
Procedure: The in vitro migration assay used in these studies is a modified version of the method described by Ashton et al. (1999) see supra. PC3 (prostate tumor cell line; CD44 positive; CD44 +ve), MDA231 (breast tumor cell line; CD44 +ve), HT29 (Colorectal tumor cell line; CD44 +ve), MCF-7 (breast tumor cell line; CD44 negative; CD44 −ve) and DU145 (prostate tumor cell line; CD44 −ve) were plated into individual chambers on a glass slide and grown to 90% confluence overnight. The medium was removed and the monolayers wounded. […] The monolayers were incubated for 24 h and then fixed in 4% PBS buffered paraformaldehyde.
The extent of “wound” closure was blindly assessed microscopically by an independent investigator and quantified using a calibrated eyepiece graticule (1 mm/100 μm graduation) at 20× magnification (Olympus BX 50). The extent of closure in the FKBP-L treated slides was compared to time matched sham treated controls and the % inhibition of wound closure compared to time matched controls calculated.

migrating HMEC-1 = assay: immunohistochemical analysis of cytoskeletal morphology (anti-tubulin, anti-vimentin, confocal microscopy); format: cell-based, Human; conditions: 750 ngml^−1; 5 hours after wounding
Procedure: Immunohistochemical analysis was carried out to assess cytoskeletal morphology upon treatment with FKBP-L by staining for tubulin and vimentin. HMEC-1 were seeded in four well chamber slides and incubtated overnight until confluent monolayers had formed. Media was removed from each well and the monolayer wounded as previously described. The cells were re-supplemented with medium containing 750 ngml^−1 recombinant His-tagged FKBP-L protein (i.e., SEQ ID NO: 1). The cells were incubated for 5 hours and the chambers were removed from the slides and the cells washed four times in PBS followed by fixation in 4% PBS buffered paraformaldehyde treated with 0.1% Triton X for 20 minutes. The cells were washed three times in PBS, and blocked for 20 minutes in 2% BSA containing 0.1% Triton X. Blocked cells were washed in PBS and incubated with one of the following monoclonal primary antibodies: (A) anti α tubulin (1:500); and (B) anti-vimentin (1:200), for 90 minutes. The cells were washed in PBS followed by a 1 hour incubation with FITC conjugated anti-mouse secondary (1:30) at room temperature. The cells were mounted with Vectashield containing propidium iodide and sealed to prevent dehydration. The slides were covered in tinfoil and stored at 4° C. for analysis using fluorescence confocal microscopy.

Molecule	tumors compared with controls (Kaplan-Meier, time to 3× treatment volume) (DU145 tumours; 0.0003 mg/kg/day, daily IP)	time for tumours to reach 3× their treatment volume (Kaplan-Meier survival) (DU145 tumours; 0.003 mg/kg/day, daily IP)	time for tumours to reach 3× their treatment volume (Kaplan-Meier survival) (DU145 tumours; 0.3 mg/kg/day, daily IP)	tumours that failed to reach their volume tripling within the duration of the experiment (all but the stated number) (DU145 tumours; 0.3 mg/kg/day, daily IP)	growth of DU145 tumours compared to vehicle only treated tumours (DU145 tumours; 0.3 mg/kg/day, daily i.p.)	growth of DU145 tumours compared to vehicle only treated tumours (DU145 tumours; 3×10^−3 mg/kg/day, daily i.p.)	body weight after daily treatment (tolerability) (DU145 tumours; daily IP injection)	tumour appearance (DU145 tumours; most effective doses, daily i.p., a number of tumours)	effect on tumor cell migration [1]	intermediate filament morphology (anti-vimentin staining) (migrating HMEC-1)	microtubule morphology (anti α tubulin staining) (migrating HMEC-1)
H-QIRQQPRDPPTETLELEVSPDPAS-OH [FKBP-L 24mer]	not significantly different from controls	significantly later than controls	significantly later than controls	All but two tumours (of 6)	significantly slowed the growth	significantly slowed the growth	None of the animals lost weight	evidence of a necrotic centre			
full length recombinant FKBP-L: recombinant full length his-tagged FKBP-L protein (SEQ ID NO: 1) expressed in BL21 (DE3) (protein, listed as Homo sapiens, His tag) MRGSHHHHHHGMASMTGGQQMGRDLYDDDDKDRWGSMETPPVNTIGEKDTSQPQQEWEKNLRENLDSVIQIRQQPRDPPTETLELEVSPDPASQILEHTQGAEKLVAELEGDSHKSHGSTSQMPEALQASDLWYCPDGSFVKKIVIRGHGLDKPKLGSCCRVLALGFPFGSGPPEGWTELTMGVGPWREETWGELIEKCLESMCQGEEAELQLPGHTGPPVGLTLASFTQGRDSWELETSEKEALAREERARGTELFRAGNPEGAARCYGRALRLLLTLPPPGPPERTVLHANLAACQLLLGQPQLAAQSCDRVLEREPGHLKALYRRGVAQAALGNLEKATADLKKVLAIDPKNRAAQEELGKVVIQGKNQDAGLAQGLRKMFG									not in CD44 −ve tumor cell lines	highly disorganized	little alignment into the wound
